Measured values reported in ChEMBL document CHEMBL1201862, “PubChem BioAssay data set” (2004).
Activity calls are given as the source filed them.

Columns and labels:
[1] = biological target: 5-hydroxytryptamine receptor 5A (Homo sapiens, UniProt P47898); assay: Counterscreen for agonists of OPRM1-OPRD1 heterodimerization: luminescence-based cell-based high throughput dose response assay to identify agonists of 5-hydroxytryptamine (serotonin) 5A receptor (HTR5A). [Related pubchem assays (depositor defined):AID504326, AID504355, AID504692, AID504904, AID504905]; assay type: functional
5-hydroxytryptamine receptor 5A, sequence (P47898 whole entry): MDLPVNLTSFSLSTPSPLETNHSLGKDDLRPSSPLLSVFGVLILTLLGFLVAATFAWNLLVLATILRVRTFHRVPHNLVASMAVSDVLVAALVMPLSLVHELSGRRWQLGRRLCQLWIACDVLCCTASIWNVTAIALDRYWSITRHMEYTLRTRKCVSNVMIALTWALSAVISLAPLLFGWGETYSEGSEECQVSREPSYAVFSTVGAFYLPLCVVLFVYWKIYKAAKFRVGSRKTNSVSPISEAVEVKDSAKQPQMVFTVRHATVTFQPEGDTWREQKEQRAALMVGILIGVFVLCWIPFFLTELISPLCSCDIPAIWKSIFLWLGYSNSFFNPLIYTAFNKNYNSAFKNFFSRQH

Mu-type opioid receptor [2] = biological target: T1, Mu-type opioid receptor (Homo sapiens, UniProt P35372); assay: (§1) Counterscreen for agonists of heterodimerization of the mu 1 (OPRM1) and delta 1 (OPRD1) opioid receptors: Luminescence-based cell-based high throughput dose response assay to identify agonists of OPRM1 homodimerization.; assay type: functional
T1 sequence (P35372 whole entry): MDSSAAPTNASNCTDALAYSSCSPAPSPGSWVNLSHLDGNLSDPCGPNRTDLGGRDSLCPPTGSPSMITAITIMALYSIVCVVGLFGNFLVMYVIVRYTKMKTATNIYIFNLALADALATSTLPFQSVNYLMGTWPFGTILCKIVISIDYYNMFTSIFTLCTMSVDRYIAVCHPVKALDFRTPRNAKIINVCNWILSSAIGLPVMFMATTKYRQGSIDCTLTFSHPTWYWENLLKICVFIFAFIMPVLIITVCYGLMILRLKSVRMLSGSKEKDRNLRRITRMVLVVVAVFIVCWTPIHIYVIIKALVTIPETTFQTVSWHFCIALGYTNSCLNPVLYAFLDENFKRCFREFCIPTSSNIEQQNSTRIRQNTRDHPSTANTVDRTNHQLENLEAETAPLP

[3] = biological target: T2, Delta-type opioid receptor (Homo sapiens, UniProt P41143); assay: as §1, with “of OPRD1” for “of OPRM1”, “homodimerization. [Related pubchem assays (depositor defined):AID504326, AID504355, AID504692, AID504904, AID504905]” for “homodimerization.”; assay type: functional
T2 sequence (P41143 whole entry): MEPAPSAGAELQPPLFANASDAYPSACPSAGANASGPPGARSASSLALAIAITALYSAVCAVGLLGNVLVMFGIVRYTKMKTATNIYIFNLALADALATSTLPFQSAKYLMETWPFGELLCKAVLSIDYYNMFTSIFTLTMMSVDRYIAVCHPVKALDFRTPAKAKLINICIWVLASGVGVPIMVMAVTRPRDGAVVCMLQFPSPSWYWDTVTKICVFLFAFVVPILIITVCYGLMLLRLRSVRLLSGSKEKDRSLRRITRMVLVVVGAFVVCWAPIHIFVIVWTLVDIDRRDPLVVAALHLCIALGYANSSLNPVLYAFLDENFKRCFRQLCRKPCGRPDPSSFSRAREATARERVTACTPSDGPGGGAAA

Vero [4] = assay: cells; assay type: functional, cell-based; conditions: Chlorocebus sabaeus
Vero [5] = assay: cells; assay type: functional; conditions: Chlorocebus sabaeus
[6] = biological target: T3, Tyrosine-protein phosphatase non-receptor type 22 (Homo sapiens, UniProt Q9Y2R2); assay type: functional
T3 sequence (Q9Y2R2 whole entry): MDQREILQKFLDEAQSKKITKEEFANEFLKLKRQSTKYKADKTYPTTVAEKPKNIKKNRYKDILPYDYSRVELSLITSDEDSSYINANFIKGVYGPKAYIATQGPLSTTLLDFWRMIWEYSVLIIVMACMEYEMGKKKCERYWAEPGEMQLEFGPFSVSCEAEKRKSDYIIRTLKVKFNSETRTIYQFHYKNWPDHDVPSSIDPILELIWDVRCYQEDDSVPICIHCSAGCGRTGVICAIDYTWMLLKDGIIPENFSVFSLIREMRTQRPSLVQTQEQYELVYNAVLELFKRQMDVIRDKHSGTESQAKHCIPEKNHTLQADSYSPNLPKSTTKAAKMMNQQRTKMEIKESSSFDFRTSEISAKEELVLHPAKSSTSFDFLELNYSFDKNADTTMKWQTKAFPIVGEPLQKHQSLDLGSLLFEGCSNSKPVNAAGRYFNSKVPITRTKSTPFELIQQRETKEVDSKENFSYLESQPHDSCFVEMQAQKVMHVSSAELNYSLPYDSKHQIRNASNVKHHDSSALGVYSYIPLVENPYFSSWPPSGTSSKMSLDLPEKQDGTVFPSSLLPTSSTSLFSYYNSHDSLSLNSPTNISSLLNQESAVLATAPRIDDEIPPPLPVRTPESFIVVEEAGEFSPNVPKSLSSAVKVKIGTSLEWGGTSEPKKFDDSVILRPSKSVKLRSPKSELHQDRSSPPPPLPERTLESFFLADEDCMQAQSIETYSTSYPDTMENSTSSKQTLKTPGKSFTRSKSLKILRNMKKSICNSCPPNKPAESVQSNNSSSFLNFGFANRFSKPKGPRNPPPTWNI

[7] = biological target: T3, Tyrosine-protein phosphatase non-receptor type 22; assay type: functional; remark: listed apart in the source
[8] = biological target: T4, Tyrosine-protein phosphatase non-receptor type 7 (Homo sapiens, UniProt P35236); assay type: functional
T4 sequence (P35236 whole entry): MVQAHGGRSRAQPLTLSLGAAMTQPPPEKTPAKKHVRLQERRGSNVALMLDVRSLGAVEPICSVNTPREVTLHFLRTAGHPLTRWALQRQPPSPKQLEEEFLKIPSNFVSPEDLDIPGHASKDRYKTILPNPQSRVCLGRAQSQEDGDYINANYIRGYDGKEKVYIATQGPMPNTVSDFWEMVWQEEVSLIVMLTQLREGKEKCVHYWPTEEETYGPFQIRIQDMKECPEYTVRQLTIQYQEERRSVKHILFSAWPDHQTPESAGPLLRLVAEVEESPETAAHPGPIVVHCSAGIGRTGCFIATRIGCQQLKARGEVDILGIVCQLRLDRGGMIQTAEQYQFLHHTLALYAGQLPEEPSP

[9] = biological target: T5, Kappa-type opioid receptor (Homo sapiens, UniProt P41145); assay type: functional
T5 sequence (P41145 whole entry): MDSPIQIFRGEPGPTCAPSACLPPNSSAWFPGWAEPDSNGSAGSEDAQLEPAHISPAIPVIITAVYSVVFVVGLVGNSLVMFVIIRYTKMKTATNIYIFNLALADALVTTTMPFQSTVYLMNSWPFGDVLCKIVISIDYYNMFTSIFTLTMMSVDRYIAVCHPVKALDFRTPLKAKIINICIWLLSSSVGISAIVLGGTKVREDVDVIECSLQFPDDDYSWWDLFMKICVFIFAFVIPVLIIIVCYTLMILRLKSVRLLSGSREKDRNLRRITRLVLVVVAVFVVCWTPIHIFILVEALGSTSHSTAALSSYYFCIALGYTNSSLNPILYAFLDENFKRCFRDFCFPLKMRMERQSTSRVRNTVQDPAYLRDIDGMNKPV

[10] = biological target: T2, Delta-type opioid receptor; assay: HTS Image-Based Screen for Antagonists of the DOR Receptor. [Related pubchem assays (depositor defined):AID1777, AID1785, AID1786, AID2133]; assay type: functional
Mu-type opioid receptor [11] = biological target: T1, Mu-type opioid receptor; assay: HTS Image-Based Screen for Agonists of the MOR Receptor. [Related pubchem assays (depositor defined):AID1777, AID1785, AID1786, AID2133]; assay type: functional
[12] = biological target: T2, Delta-type opioid receptor; assay: HTS Image-Based Screen for Agonists of the DOR Receptor. [Related pubchem assays (depositor defined):AID1777, AID1786, AID2133]; assay type: functional
[13] = biological target: T5, Kappa-type opioid receptor; assay type: functional; remark: listed apart in the source
[14] = biological target: T6, Corticotropin-releasing factor receptor 2/Corticotropin-releasing factor-binding protein (Homo sapiens, UniProt P24387+Q13324); assay: activators of CRF receptor 2 with binding protein – uHTS hits, confirmation (AID 602473); assay type: functional; conditions: read-out: EC50_Mean
T6 sequence (Q13324 whole entry): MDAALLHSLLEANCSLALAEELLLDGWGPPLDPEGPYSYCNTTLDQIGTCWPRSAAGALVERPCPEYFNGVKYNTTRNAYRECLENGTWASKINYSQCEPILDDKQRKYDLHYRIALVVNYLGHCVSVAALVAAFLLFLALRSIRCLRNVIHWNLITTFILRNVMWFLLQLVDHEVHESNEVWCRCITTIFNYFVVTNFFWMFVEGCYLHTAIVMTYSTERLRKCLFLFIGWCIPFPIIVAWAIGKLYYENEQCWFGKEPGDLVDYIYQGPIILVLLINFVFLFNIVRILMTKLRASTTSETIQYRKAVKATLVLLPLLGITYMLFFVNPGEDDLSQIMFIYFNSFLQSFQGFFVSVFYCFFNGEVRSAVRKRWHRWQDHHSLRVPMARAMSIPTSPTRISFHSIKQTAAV
T6 sequence (P24387 whole entry): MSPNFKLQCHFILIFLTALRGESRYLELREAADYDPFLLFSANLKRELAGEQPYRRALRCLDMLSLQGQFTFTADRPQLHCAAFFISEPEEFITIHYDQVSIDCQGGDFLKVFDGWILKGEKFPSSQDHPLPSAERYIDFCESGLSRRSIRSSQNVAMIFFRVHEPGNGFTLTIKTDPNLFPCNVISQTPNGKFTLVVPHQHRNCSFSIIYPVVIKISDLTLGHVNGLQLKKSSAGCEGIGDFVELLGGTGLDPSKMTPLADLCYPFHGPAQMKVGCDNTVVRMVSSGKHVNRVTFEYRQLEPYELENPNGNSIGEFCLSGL

For `CCc1ccc(NC(=O)N(CCCN2CCOCC2)Cc2cccs2)cc1`, the EC50 [1] was > 92.5 µM (inactive), the EC50 (Mu-type opioid receptor [2]) was > 92.5 µM (inactive) and the EC50 [3] was > 92.5 µM (inactive).
In the case of `N#C/C(=C\c1c(Oc2ccccc2Cl)nc2ccccn2c1=O)C(=O)NC1CCS(=O)(=O)C1` (stereo not given), the IC50 (Vero [4]) is reported as > 25 µM (active).
`COc1cccc(/C=C/C(=O)c2ccc3c(c2)OCO3)c1OC` was tested, and the IC50 (Vero [4]) was > 25 µM (active) and the CC50 (Vero [5]) was > 25 µM (active).
With `Cc1ccc(C)n1-c1ccc(-c2cc[nH]n2)cc1` the IC50 [6] was > 79.4 µM (inactive), the IC50 [7] was > 79.4 µM (inactive) and the IC50 [8] was > 79.4 µM (inactive).
`O=C(c1ccc([N+](=O)[O-])cc1)N(Cc1ccc(Cl)cc1)N1C(=O)CCCC1=O` was tested, and the EC50 [9] was over 35 µM, the IC50 [10] was > 32 µM (inactive) and the EC50 (Mu-type opioid receptor [11]) was > 32 µM (inactive). For the same molecule, the EC50 [12] was > 32 µM (inactive), the EC50 [13] was 5.66 µM and the EC50 [14] was 0.709 µM (active).
